Assay results from US20100029568A1, “TIGHTER-BINDING C-PEPTIDE INHIBITORS OF HIV-1 ENTRY” (priority 2007, published 2010).
Where two headings read alike, the source gives them in different places. Ends that are not written are not given here.

Tests used:
[1] = system: HIV-1 pseudotyped with wild type Env from strain HXB2 (HOS-CD4 target cells); type: cell-based
Description: (§1) All viral infectivity and cell-cell fusion experiments were performed as described in Chan, D., et. al., 1998, Proc. Natl. Acad. Sci. U.S.A. 95, 15613-15617. Briefly, the potency of C-peptides in inhibiting viral infection was determined using recombinant luciferase-expressing HIV-1 as described by Malashkevich, V. N., et. al., 1998, Proc. Natl. Acad. Sci. USA 95, 9134-9139. To produce virus, 293T cells were co-transfected with the envelope-deficient HIV-1 genome NL43LucR-E-(21) and the HXB2 gp160 expression vector pCMVHXB2 gp160 using calcium phosphate. Viral supernatants were cleared of cellular debris by low-speed centrifugation and used to infect HOS-CD4/Fusin cells (N. Landau, National Institutes of Health AIDS Reagent Program) in the presence of varying concentrations of C-peptide, ranging from 0 to 200 nM. Cells were harvested 48 hr postinfection, and luciferase activity was measured in a Wallac (Gaithersburg, Md.) AutoLumat LB953 luminometer. The IC50 is the peptide concentration that results in a 50% decrease in activity relative to control samples lacking peptide. For each peptide, data from three experiments were fit to a Langmuir equation [y=k/(1+([peptide]/IC50)], where y=luciferase activity and k is a scaling constant] to obtain the IC50 values.
(§2) HOS-CD4-Les cells were infected with HIV-1 pseudotyped with Env from HXB2 HIV-1 strain of either the wild type sequence or one of three variant sequences that confer resistance to C-peptides. The sequences of Res1 and Res2 Env, defined in FIG. 1, contain mutations in the gp41 HR1 region that decrease C-peptide binding affinity. The sequence of Res3 contains a mutation in the gp41 HR2 region (N637K) that confers partial resistance by enhancing the rate of viral membrane fusion. The IC50 (±SEM) values represent the mean of 2 or 3 independent titrations of the indicated C-peptide.
(§3) The C37 variants generated were able to overcome resistance conferred by the HR1 region mutations. In FIG. 2, viruses pseudotyped with either wild type Env (closed squares) or V549E mutant Env (Res1, closed circles) from strain HXB2 were utilized to infect HOS-CD4-Les target cells. Infection took place in the presence and absence of C37 (FIG. 2A), C37-KYI (FIG. 2B) or (C37-GC)2 (FIG. 2C) and quantified by the expression of a luciferase-reporter construct. The IC50 values are indicated on the graph. A mutant variant of C37 with two substitutions (N637K and T6391), hereafter denoted C37-KYI, binds to a structural mimic of the gp41 HR1 region, the N-peptide known as N36 with an estimated equilibrium dissociation constant (Kd) of 40 fM, more than 20-fold lower than the Kd for wild type C37 (FIG. 2). The Hr1 and HR2 regions of three gp41 form an intermediate structure called the trimer-of-hairpins which is necessary for the viral entry process and membrane fusion with the host membrane.

[2] = system: HIV-1 pseudotyped with V549E mutant Env (Res1, V38E) from strain HXB2; type: cell-based
Description: as §1, §2, §3

HIV-1 Res 4 (SDTV) = type: cell-based; settings: Table 2
HIV-1 Res 2 (L33S) = type: cell-based; settings: Table 2
Description: as §1, §2

[3] = system: HIV-1 pseudotyped with Res 3 Env (HR2 mutant, N637K), HXB2; type: cell-based
Description: as §1, §2

[4] = system: HIV-1 with resistance mutations at the gp41 HR1 region; assay: Viral infectivity, C-peptide-resistant HIV-1 (HR1 region resistance mutations, text statements); type: cell-based
Description: as §1, with “values. […]” for “values.”

[5] = system: HIV-1 with resistance mutations at the gp41 HR1 region; settings: read-out: IC50 after emergence of resistance mutations; cited from earlier work
HIV entry = settings: read-out: IC50 against HIV entry; cited from earlier work
[6] = Table 1, HXB2 wild type Env, HOS-CD4-Les cells, mean of 2 or 3 titrations, read-out: IC50 (±SEM), WT Env
[7] = Table 2, read-out: IC50, WT HXB2

| Compound | IC50 [1, 6] [nM] | inhibition of wild type virus compared to monomeric C37 ([1]; in words) | IC50 ([2]; Table 1, HOS-CD4-Les cells, read-out: IC50 (±SEM), Res 1 Env (HR1 mutant)) [nM] | IC50 (HIV-1 Res 4 (SDTV)) [nM] | IC50 [1, 7] [nM] | IC50 ([1]; read-out: IC50 against viruses pseudotyped with EnvHXB2) [nM] | IC50 ([2]; Table 2, read-out: IC50, Res 1 (V38E)) [nM] | IC50 (HIV-1 Res 2 (L33S)) [nM] | IC50 ([3]; Table 2, read-out: IC50, Res 3 (N123K/L204I)) [nM] | fold reduction in inhibitory potency by HR1 region resistance mutations [4] [fold] | IC50 [5] [nM] | IC50 ([3]; Table 1, HOS-CD4-Les cells, read-out: IC50 (±SEM), Res 3 Env (HR2 mutant)) [nM] | IC50 (HIV entry) [nM] |
| --- | --- | --- | --- | --- | --- | --- | --- | --- | --- | --- | --- | --- | --- |
| (C37-GC)2: Disulfide-crosslinked dimeric C37 variant containing a Cys residue at the peptide's C-terminus (added Gly-Cys) (HTTWMEWDREINNYTSLIHSLIEESQNQQEKNEQELLGC; also: disulfide-crosslinked homodimer via C-terminal Cys) | 0.3 | not significantly better | 0.3 | – | – | – | – | – | – | – | – | – | – |
| CC[C@H](C)[C@H](NC(=O)[C@H](CC(C)C)NC(=O)[C@H](CO)NC(=O)[C@H](Cc1c[nH]cn1)NC(=O)[C@@H](NC(=O)[C@H](CC(C)C)NC(=O)[C@H](CO)NC(=O)[C@@H](NC(=O)[C@H](Cc1ccc(O)cc1)NC(=O)[C@H](CC(N)=O)NC(=O)[C@H](CC(N)=O)NC(=O)[C@@H](NC(=O)[C@H](CCC(=O)O)NC(=O)[C@H](CCCNC(=N)N)NC(=O)[C@H](CC(=O)O)NC(=O)[C@H](Cc1c[nH]c2ccccc12)NC(=O)[C@H](CCC(=O)O)NC(=O)[C@H](CCSC)NC(=O)[C@H](Cc1c[nH]c2ccccc12)NC(=O)[C@@H](NC(=O)[C@@H](NC(=O)[C@H](Cc1c[nH]cn1)NC(=O)CNC(=O)CN)[C@@H](C)O)[C@@H](C)O)[C@@H](C)CC)[C@@H](C)O)[C@@H](C)CC)C(=O)N[C@@H](CCC(=O)O)C(=O)N[C@@H](CCC(=O)O)C(=O)N[C@@H](CO)C(=O)N[C@@H](CCC(N)=O)C(=O)N[C@@H](CC(N)=O)C(=O)N[C@@H](CCC(N)=O)C(=O)N[C@@H](CCC(N)=O)C(=O)N[C@@H](CCC(=O)O)C(=O)N[C@@H](CCCCN)C(=O)N[C@@H](CC(N)=O)C(=O)N[C@@H](CCC(=O)O)C(=O)N[C@@H](CCC(N)=O)C(=O)N[C@@H](CCC(=O)O)C(=O)N[C@@H](CC(C)C)C(=O)N[C@@H](CC(C)C)C(=O)NCC(=O)NCC(=O)N[C@@H](Cc1c[nH]cn1)C(=O)N[C@@H](Cc1c[nH]cn1)C(=O)N[C@@H](Cc1c[nH]cn1)C(=O)N[C@@H](Cc1c[nH]cn1)C(=O)N[C@@H](Cc1c[nH]cn1)C(=O)N[C@@H](Cc1c[nH]cn1)C(=O)O [C37] | – | – | – | 53 ± 15 | 1.3 ± 0.2 | ~1 | 126 ± 24 | 1.3 ± 0.4 | 7.1 ± 3.6 | 100 | – | – | – |
| enfuvirtide | 1.7 ± 0.4 | – | – | 900 ± 150 | 2.3 ± 1 | – | – | – | – | – | > 900 | 6.4 ± 1.5 | ~1 |
